# In patent publication US10897906B2, “Fungicide for the treatment of fungal pathogens causing mycotoxins” (priority 2015, dated 2021):
# Key:
# [1] = Surface tension of aqueous bicarbonate spray solution (Kruss DSA30); type: physicochemical; conditions: aqueous solutions at typical in-use concentrations (2-5% active ingredient)
# Description: (§1) In this application surface tension and contact angle were measured using a Kruss DSA30 system, […] was measured using a pendant drop technique with analysis carried out after application of the Laplace-Young equation, […] was measured following application of a droplet on to an artificial hydrophobic (Para-film) surface. The particle sizes of the crystals of the bicarbonate salt were determined by microscopy following the application of Motic Advanced Imaging Software.
# [2] = Contact angle of aqueous bicarbonate spray solution (Kruss DSA30, hydrophobic Para-film surface); type: physicochemical; conditions: aqueous solutions at typical in-use concentrations (2-5% active ingredient)
# Description: as §1
compound,measurement,setting,value
O=C([O-])O.[K+] [potassium bicarbonate],Surface tension compared with water,[1],virtually identical to that achieved with water alone
same,Contact angle with the plant tissues compared with water,[2],virtually identical to that achieved with water alone
